Results taken from patent publication US11959486B2, “Stable liquid formulation of AMG 416 (etelcalcetide)” (AMGEN INC., priority 2013, dated 2024).
Like-named read-outs stand apart in the source and are kept apart here.

Legend:
[1] = Stability in buffered solutions at pH 2.25, 2.5, 3.0 and 3.5, RP-HPLC purity and degradants (Example 6)
Method: In this study, the stability of a liquid formulation of AMG 416 under low pH conditions was investigated. Succinate-buffered saline (10 mM, pH 3.5) was prepared by dissolving 59 mg of succinic acid in 45 ml of lab processed (deionized) water and adjusting the pH to 3.5 using 1N HCl and 1N NaOH as needed, and q.s. to 50 ml. In the same way, a 10 mM, pH 3.5 sodium lactate (56 mg/50 mL) buffer solution was prepared.
NaCl (90 mg) was added to one portion and mannitol (500 mg) was added to the other. Each 10 mL portion was split again into two equal 5 mL portions and the pH was adjusted to 2.25 and 3.5, respectively, with 1N HCl and 1N NaOH. In the same way, four 5 mL solutions were prepared using lactate buffer. 1.0 mL of each of the (eight) resulting solutions was added to 3 serum sample vials. In addition, the remaining pH 2.25, succinate-buffered AMG 416 solution containing NaCl was adjusted to pH 2.5 and 0.5 mL aliquots were added to 3 serum sample vials and the remaining pH 3.5 succinate buffered solution with NaCl was adjusted to pH 3.0 and 0.5 mL aliquots were added to 3 serum sample vials.
At each time point (0, 2, 8, 12 and 24 weeks) all 30 samples were retrieved from storage, equilibrated to room temperature (about 25° C.), and a 100 μL aliquot was diluted to 0.5 mg/mL with water for RP-HPLC analysis. […]

[2] = for Degradation at 2 y: 3.4 mg/mL in succinate-buffered saline
Method: In this study, the long term stability of a liquid formulation of AMG 416, at a concentration of 3.4 mg/mL, was determined over a range of pH in succinate-buffered saline. USP purified water (1200 mL) was dispensed into a glass beaker. Sodium succinate (4.05 g) and sodium chloride (13.5 g) were added and stirred to dissolve. The pH was adjusted to 2.5 with 1N NaOH and/or 1N HCl as required. […] The solution was divided into three portions and the pH for each portion was adjusted to 2.5, 3.0 and 3.5, respectively. Each solution was filtered separately through 0.22 micron PVDF filter and dispense 2 mL to 5-cc vials. After being stoppered, sealed, and labeled, the vials were place in designated stability chambers at 5° C.±3, 25° C.±2, and 40° C.±2. Samples were retrieved according to schedule and diluted with deionized water to 1.0 mg/mL for HPLC analysis.

[3] = 5 mg/mL
Method: In this study, the effects of various pharmaceutical excipients on the stability of AMG 416 in liquid formulation were determined. A 10 mg/mL solution of AMG 416 and stock solutions of mannitol, glycine, arginine, NaCl and Na2SO4 at 2× isotonic concentrations were prepared. The pH of the AMG 416 solution and the five excipient solutions and deionized water separately were adjusted to pH 3.5 using HCl/NaOH. 500 μL aliquots of each of the six solutions were added to glass vials and 500 μL of the AMG 416 solution was added to the same vials and mixed well. This was performed in triplicate to provided eighteen sample vials, each containing 5 mg/mL AMG 416 and an isotonic concentration of the excipient (or deionized water). This was repeated with a set of solutions adjusted to pH 4.5, providing a further eighteen sample vials. The samples were incubated and removed for HPLC analysis at relevant time points.

SMILES: CC(=O)N[C@H](CSSC[C@H](N)C(=O)O)C(=O)N[C@H](C)C(=O)N[C@H](CCCNC(=N)N)C(=O)N[C@H](CCCNC(=N)N)C(=O)N[C@H](CCCNC(=N)N)C(=O)N[C@H](C)C(=O)N[C@H](CCCNC(=N)N)C(N)=O [AMG 416, N-acetyl-D-cysteinyl-D-alanyl-D-arginyl-D-arginyl-D-arginyl-D-alanyl-D-arginamide disulfide with L-cysteine]
- pH of maximal stability ([1]; 5 mg/mL solutions, Example 6): 3.0±0.5
- predicted total degradation over 2 years under refrigerated conditions ([1]; liquid formulations at pH 3.0): 2-4%
- Degradation at 2 y ([2]; pH 2.5, 5° C.): 4.4%
- Degradation at 2 y ([2]; pH 2.5, 25° C.): 30.7%
- Degradation at 2 y ([2]; pH 2.5, 40° C.): 78.8%
- Degradation at 2 y ([2]; pH 3, 5° C.): 1.5%
- Degradation at 2 y ([2]; pH 3, 25° C.): 14.6%
- Degradation at 2 y ([2]; pH 3, 40° C.): 60.0%
- Degradation at 2 y ([2]; pH 3.5, 5° C.): 0.9%
- Degradation at 2 y ([2]; pH 3.5, 25° C.): 10.0%
- Degradation at 2 y ([2]; pH 3.5, 40° C.): 53.1%
- stability over shelf-life ([2]; refrigerated conditions): adequate stability of AMG 416 over at least a two year shelf-life
- Extent of degradation at 56 days ([3]; Arg, pH 3.5, 2-8° C.): 0.0%
- Extent of degradation at 56 days ([3]; Arg, pH 3.5, 40° C.): 28%
- Extent of degradation at 56 days ([3]; Arg, pH 3.5, RT): 0.6%
- Predicted extent of degradation After 2 Year Storage at Room Temperature ([3]; Arg, pH 3.5, from 2-8° C. data): 2%
- Predicted extent of degradation After 2 Year Storage at Room Temperature ([3]; Arg, pH 3.5, from 40° C. data): 90%
- Predicted extent of degradation After 2 Year Storage at Room Temperature ([3]; Arg, pH 3.5, from RT data): 7%
- Extent of degradation at 56 days ([3]; Arg, pH 4.5, 2-8° C.): 0.5%
- Extent of degradation at 56 days ([3]; Arg, pH 4.5, 40° C.): 67%
- Extent of degradation at 56 days ([3]; Arg, pH 4.5, RT): 29%
- Predicted extent of degradation After 2 Year Storage at Room Temperature ([3]; Arg, pH 4.5, from 2-8° C. data): 27%
- Predicted extent of degradation After 2 Year Storage at Room Temperature ([3]; Arg, pH 4.5, from 40° C. data): >100%
- Predicted extent of degradation After 2 Year Storage at Room Temperature ([3]; Arg, pH 4.5, from RT data): >100%
- Extent of degradation at 56 days ([3]; DI Water, pH 3.5, 2-8° C.): 0.0%
- Extent of degradation at 56 days ([3]; DI Water, pH 3.5, 40° C.): 8.2%
- Extent of degradation at 56 days ([3]; DI Water, pH 3.5, RT): 1.0%
- Predicted extent of degradation After 2 Year Storage at Room Temperature ([3]; DI Water, pH 3.5, from 2-8° C. data): 1%
- Predicted extent of degradation After 2 Year Storage at Room Temperature ([3]; DI Water, pH 3.5, from 40° C. data): 27%
- Predicted extent of degradation After 2 Year Storage at Room Temperature ([3]; DI Water, pH 3.5, from RT data): 13%
- Extent of degradation at 56 days ([3]; DI Water, pH 4.5, 2-8° C.): 0.7%
- Extent of degradation at 56 days ([3]; DI Water, pH 4.5, 40° C.): 24%
- Extent of degradation at 56 days ([3]; DI Water, pH 4.5, RT): 3.6%
- Predicted extent of degradation After 2 Year Storage at Room Temperature ([3]; DI Water, pH 4.5, from 2-8° C. data): 35%
- Predicted extent of degradation After 2 Year Storage at Room Temperature ([3]; DI Water, pH 4.5, from 40° C. data): 77%
- Predicted extent of degradation After 2 Year Storage at Room Temperature ([3]; DI Water, pH 4.5, from RT data): 47%
- Extent of degradation at 56 days ([3]; Gly, pH 3.5, 2-8° C.): 0.0%
- Extent of degradation at 56 days ([3]; Gly, pH 3.5, 40° C.): 17%
- Extent of degradation at 56 days ([3]; Gly, pH 3.5, RT): 0.6%
- Predicted extent of degradation After 2 Year Storage at Room Temperature ([3]; Gly, pH 3.5, from 2-8° C. data): 3%
- Predicted extent of degradation After 2 Year Storage at Room Temperature ([3]; Gly, pH 3.5, from 40° C. data): 55%
- Predicted extent of degradation After 2 Year Storage at Room Temperature ([3]; Gly, pH 3.5, from RT data): 8%
- Extent of degradation at 56 days ([3]; Gly, pH 4.5, 2-8° C.): 0.6%
- Extent of degradation at 56 days ([3]; Gly, pH 4.5, 40° C.): 28%
- Extent of degradation at 56 days ([3]; Gly, pH 4.5, RT): 6.4%
- Predicted extent of degradation After 2 Year Storage at Room Temperature ([3]; Gly, pH 4.5, from 2-8° C. data): 31%
- Predicted extent of degradation After 2 Year Storage at Room Temperature ([3]; Gly, pH 4.5, from 40° C. data): 90%
- Predicted extent of degradation After 2 Year Storage at Room Temperature ([3]; Gly, pH 4.5, from RT data): 83%
- Extent of degradation at 56 days ([3]; Mannitol, pH 3.5, 2-8° C.): 0.0%
- Extent of degradation at 56 days ([3]; Mannitol, pH 3.5, 40° C.): 4.9%
- Extent of degradation at 56 days ([3]; Mannitol, pH 3.5, RT): 0.5%
- Predicted extent of degradation After 2 Year Storage at Room Temperature ([3]; Mannitol, pH 3.5, from 2-8° C. data): 0%
- Predicted extent of degradation After 2 Year Storage at Room Temperature ([3]; Mannitol, pH 3.5, from 40° C. data): 16%
- Predicted extent of degradation After 2 Year Storage at Room Temperature ([3]; Mannitol, pH 3.5, from RT data): 7%
- Extent of degradation at 56 days ([3]; Mannitol, pH 4.5, 2-8° C.): 0.5%
- Extent of degradation at 56 days ([3]; Mannitol, pH 4.5, 40° C.): 23%
- Extent of degradation at 56 days ([3]; Mannitol, pH 4.5, RT): 2.2%
- Predicted extent of degradation After 2 Year Storage at Room Temperature ([3]; Mannitol, pH 4.5, from 2-8° C. data): 28%
- Predicted extent of degradation After 2 Year Storage at Room Temperature ([3]; Mannitol, pH 4.5, from 40° C. data): 75%
- Predicted extent of degradation After 2 Year Storage at Room Temperature ([3]; Mannitol, pH 4.5, from RT data): 28%
- Extent of degradation at 56 days ([3]; Na2SO4, pH 3.5, 2-8° C.): 0.0%
- Extent of degradation at 56 days ([3]; Na2SO4, pH 3.5, 40° C.): 9.4%
- Extent of degradation at 56 days ([3]; Na2SO4, pH 3.5, RT): 0.4%
- Predicted extent of degradation After 2 Year Storage at Room Temperature ([3]; Na2SO4, pH 3.5, from 2-8° C. data): 2%
- Predicted extent of degradation After 2 Year Storage at Room Temperature ([3]; Na2SO4, pH 3.5, from 40° C. data): 31%
- Predicted extent of degradation After 2 Year Storage at Room Temperature ([3]; Na2SO4, pH 3.5, from RT data): 5%
- Extent of degradation at 56 days ([3]; Na2SO4, pH 4.5, 2-8° C.): 0.4%
- Extent of degradation at 56 days ([3]; Na2SO4, pH 4.5, 40° C.): 30%
- Extent of degradation at 56 days ([3]; Na2SO4, pH 4.5, RT): 51%
- Predicted extent of degradation After 2 Year Storage at Room Temperature ([3]; Na2SO4, pH 4.5, from 2-8° C. data): 22%
- Predicted extent of degradation After 2 Year Storage at Room Temperature ([3]; Na2SO4, pH 4.5, from 40° C. data): 98%
- Predicted extent of degradation After 2 Year Storage at Room Temperature ([3]; Na2SO4, pH 4.5, from RT data): >100%
- Extent of degradation at 56 days ([3]; NaCl, pH 3.5, 2-8° C.): 0.1%
- Extent of degradation at 56 days ([3]; NaCl, pH 3.5, 40° C.): 3.0%
- Extent of degradation at 56 days ([3]; NaCl, pH 3.5, RT): 0.3%
- Predicted extent of degradation After 2 Year Storage at Room Temperature ([3]; NaCl, pH 3.5, from 2-8° C. data): 4%
- Predicted extent of degradation After 2 Year Storage at Room Temperature ([3]; NaCl, pH 3.5, from 40° C. data): 10%
- Predicted extent of degradation After 2 Year Storage at Room Temperature ([3]; NaCl, pH 3.5, from RT data): 4%
- Extent of degradation at 56 days ([3]; NaCl, pH 4.5, 2-8° C.): 1.1%
- Extent of degradation at 56 days ([3]; NaCl, pH 4.5, 40° C.): 18%
- Extent of degradation at 56 days ([3]; NaCl, pH 4.5, RT): 1.8%
- Predicted extent of degradation After 2 Year Storage at Room Temperature ([3]; NaCl, pH 4.5, from 2-8° C. data): 56%
- Predicted extent of degradation After 2 Year Storage at Room Temperature ([3]; NaCl, pH 4.5, from 40° C. data): 58%
- Predicted extent of degradation After 2 Year Storage at Room Temperature ([3]; NaCl, pH 4.5, from RT data): 24%
